Consider 18 molecules from ChEMBL document CHEMBL4414641, “Chemical Constituents of Anneslea fragrans and Their Antiausterity Activity against the PANC-1 Human Pancreatic Cancer Cell Line” (J Nat Prod, 2019).

The structures appear in SMILES notation. The source made the active and inactive calls. The calls are words filed in the database; no cut-off is given here.

Data set [1] has as its system PANC-1. Description: Inhibition of cell migration in human PANC1 cells assessed as decrease in velocity of cell migration at 100 uM cultured in nutrient rich DMEM medium measured every 15 mins for 72 hrs by quantitative real-time imaging analysis. The class given is functional, cell-based.
The test system of data set [2] is PANC-1. The data set is described as follows: Inhibition of cell migration in human PANC1 cells assessed as closed wound area at 100 uM cultured in nutrient rich DMEM medium measured within 24 hrs by quantitative real-time imaging based wound healing assay (reference value: 100%). The format is functional. The arrangement: scale not given: the % may be the effect or the level left.

Data set [3] has as its system PANC-1. Description: Cytotoxicity against nutrient-rich DMEM cultured human PANC1 cells at PC50 incubated for 24 hrs by WST-8 assay. The class given is cell-based. The note with it: panc-1, 24 h.
Data set [4] deals with PANC-1. The data set is described as follows: Inhibition of cell migration in human PANC1 cells assessed as open wound area at 100 uM cultured in nutrient rich DMEM medium measured after 24 hrs by quantitative real-time imaging based wound healing assay relative to control. The format is functional. The arrangement: scale not given: the % may be the effect or the level left.

Data set [5] deals with PANC-1. Description: Inhibition of cell migration in human PANC1 cells at 100 uM cultured in nutrient rich DMEM medium measured every 15 mins for 72 hrs by quantitative real-time imaging analysis. The class given is functional, cell-based.
Data set [6] relates to PANC-1. The data set is described as follows: Inhibition of cell migration in human PANC1 cells assessed as open wound area at 100 uM cultured in nutrient rich DMEM medium measured after 72 hrs by quantitative real-time imaging based wound healing assay (reference value: 5%). The format is functional. The arrangement: scale not given: the % may be the effect or the level left.

Data set [7] concerns PANC-1. Description: Inhibition of cell migration in human PANC1 cells assessed as open wound area at 100 uM cultured in nutrient rich DMEM medium measured after 48 hrs by quantitative real-time imaging based wound healing assay (reference value: 12%). The class given is functional. Also on record: scale not given: the % may be the effect or the level left.
In data set [8] the test system is PANC-1. The data set is described as follows: Anti-austerity activity against nutrient-deprived human PANC1 cells assessed as cell death incubated for 24 hrs by WST-8 assay. The format is functional.

In the case of `CC1(C)OC[C@H]2O[C@@H](Oc3ccc(C(=O)CCc4ccc(O)cc4)c(O)c3)[C@H](O)[C@@H](O)[C@@H]2O1`, the inhibition result in data set [1] and in data set [5] was “Active” in each case. Besides, the Activity in data set [2] was 38%; in data set [3] it was “Non-Toxic”; in data set [4], 93%; in data set [6] it was 72%; in data set [7], 81%. In addition, the PC50 in data set [8] came out at 60.9 µM.

Turning to `O=C(CCc1ccc(O)cc1)c1ccc(O[C@@H]2O[C@H](CO)[C@@H](O)[C@H](O)[C@H]2O)cc1O` [CONFUSOSIDE], in data set [3], the Activity result is recorded as “Non-Toxic”. In data set [8], the PC50 turned out to be 82.6 µM.

Turning to `O=C(CCc1ccc(O)c(O)c1)c1ccc(O)cc1O`, the Activity entry in data set [3] is “Non-Toxic”.

Turning to `C[C@@H]1O[C@@H](Oc2c(-c3ccc(O)cc3)oc3cc(O)cc(O)c3c2=O)[C@H](O)[C@H](O)[C@H]1O` [AFZELIN], in data set [3], the Activity result is given as “Non-Toxic”. Further, the PC50 in data set [8] is 8.9 µM.

Turning to `C=C(C)[C@@H]1CC[C@]2(CO)CC[C@]3(C)[C@H](CC[C@@H]4[C@@]5(C)CC[C@H](O)C(C)(C)[C@@H]5CC[C@]43C)[C@@H]12` [BETULIN], in data set [3], the Activity entry was “Non-Toxic”. Further, the PC50 in data set [8] worked out at 8.4 µM.

In the case of `COc1cc(C[C@H]2C(=O)OC[C@@H]2Cc2ccc(OC)c(OC)c2)ccc1O` [ARCTIGENIN], in data set [3], the Activity entry was “Non-Toxic”. Besides, in data set [8], the PC50 turned out to be 0.7 µM.

Turning to `C[C@@H]1O[C@@H](O[C@H]2[C@H](Oc3c(-c4ccc(O)cc4)oc4cc(O)cc(O)c4c3=O)O[C@H](CO)[C@@H](O)[C@@H]2O)[C@H](O)[C@H](O)[C@H]1O`, the Activity result in data set [3] is “Non-Toxic”. The PC50 in data set [8] worked out at 17.4 µM.

On to `O=C(/C=C/c1ccc(O)c(O)c1)c1ccc(O)cc1O` [BUTEIN], for which, in data set [3], the Activity result is given as “Non-Toxic”. The PC50 in data set [8] was 67 µM.

As to `Oc1cc(O)c2c(c1)O[C@H](c1ccc(O)c(O)c1)[C@H](O)C2` [(-)-EPICATECHIN], the Activity entry in data set [3] was “Non-Toxic”. Also, the PC50 in data set [8] is 14.7 µM.

For `C[C@@H]1O[C@@H](OC[C@H]2O[C@@H](Oc3c(-c4ccc(O)cc4)oc4cc(O)cc(O)c4c3=O)[C@H](O)[C@@H](O)[C@@H]2O)[C@H](O)[C@H](O)[C@H]1O` [NICOTIFLOROSIDE], the Activity entry in data set [3] is “Non-Toxic”. Further, in data set [8], the PC50 was determined as 67.1 µM.

Take `O=c1c(O[C@@H]2O[C@H](CO)[C@@H](O)[C@H](O)[C@H]2O)c(-c2ccc(O)c(O)c2)oc2cc(O)cc(O)c12` [ISOQUERCETIN]: in data set [3], the Activity entry is reported as “Non-Toxic”. Also, the PC50 in data set [8] was above 100 µM.

Consider `C=C(C)[C@@H]1CC[C@]2(C)CC[C@]3(C)[C@H](CC[C@@H]4[C@@]5(C)CC[C@H](O)C(C)(C)[C@@H]5CC[C@]43C)[C@@H]12` [LUPEOL], for which the Activity result in data set [3] is recorded as “Non-Toxic”. Moreover, the PC50 in data set [8] stood at 38.6 µM.

`CC[C@H](/C=C/[C@@H](C)[C@H]1CC[C@H]2C3=CC[C@H]4C[C@@H](O)CC[C@]4(C)[C@H]3CC[C@]12C)C(C)C`: the Activity entry in data set [3] was “Non-Toxic”. For the same molecule, the PC50 in data set [8] came to 58.1 µM.

Consider `COc1cc2oc(=O)ccc2cc1O` [ISOSCOPOLETIN], for which the Activity entry in data set [3] was “Non-Toxic”. The PC50 in data set [8] amounted to 26.9 µM.

With `O=C(CCc1ccc(O)c(O)c1)c1ccc(O[C@@H]2O[C@H](CO)[C@@H](O)[C@H](O)[C@H]2O)cc1O`, the Activity result in data set [3] was “Non-Toxic”. Moreover, the PC50 in data set [8] amounted to 10.4 µM.

As for `O=c1c(O)c(-c2ccc(O)c(O)c2)oc2cc(O)cc(O)c12` [QUERCETIN], in data set [3], the Activity result was “Non-Toxic”. Moreover, the PC50 in data set [8] was determined as 21.8 µM.

Consider `O=C(/C(O)=C/c1ccc(O)c(O)c1)c1ccc(O[C@H]2COC(=O)[C@@H]2O)cc1O`, for which the Activity entry in data set [3] is given as “Non-Toxic”. For the same molecule, the PC50 in data set [8] was above 100 µM.

Regarding `O=C(CCc1ccc(O)cc1)c1ccc(O)cc1O[C@@H]1O[C@H](CO)[C@@H](O)[C@H](O)[C@H]1O`, the Activity result in data set [3] was “Non-Toxic”. The PC50 in data set [8] was above 100 µM.
